From patent publication US7838543B2, “MCH receptor antagonists” (Eli Lilly and Company, priority 2005, dated 2010) come the findings set out here.

In assay [1] the test system is diet-induced obese male Long-Evans rats. Nature of the assay: 3 day body weight change in diet-induced obese rats after oral dosing. The assay is classed as in vivo, rat. Conditions: 10 mg/kg oral once a day for 3 days, 3 day cumulative, relative to vehicle control. Here is the method: Vehicle consisted of 1% CMC and 0.25% PS-80 in water.
Animals were individually housed in a temperature regulated room (24° C.) with a reverse 12 hour light/dark cycle (dark 10:00/22:00). Water and food (Teklad 95217, Harlan, Wis.) were available ad libitum. Compounds were dosed orally once a day before onset of dark for 3 days. Daily food intake and body weight change were measured for the 3 day period.

Another assay deals with T1, human MCHR1 (Homo sapiens, UniProt Q99705).
T1 construct: The full-length cDNA for human MCHR1 was cloned from a human adult brain cDNA library; expressed in transfected cells; host or cells: AV12 cells previously transfected with Galpha15
Nature of the assay: 125I-MCH competitive binding assay with clone 43 membranes. The settings on record: Ki from IC50 by Cheng-Prusoff. Here is the method: The full-length cDNA for human MCHR1 was cloned from a human adult brain cDNA library (Edge Biosystems, Cat. 38356) by standard polymerase chain reaction (PCR) methodology employing the following primers: sense, 5′-GCCACCATGGACCT GGAAGCCTCGCTGC-3′; anti-sense, 5′-[…]-3′. The PCR reaction was performed in a final volume of 50 μl containing 5 μl of a 10× stock solution of PCR buffer, 1 μl of 10 mM dNTP mixture (200 μM final), 2 μl of 50 mM Mg(SO4) (2 mM final), 0.5 μl of 20 μM solutions of each primer (0.2 μM final), 5 μl of template cDNA containing 0.5 ng DNA, 0.5 μl of Platinum Taq High Fidelity DNA polymerase (Gibco Life Technologies) and […] of H2O. PCR amplification was performed on a Perkin Elmer 9600 thermocycler. After denaturation for 90 sec at 94° C., the amplification sequence consisting of 94° C. for 25 sec, 55° C. for 25 sec and 72° C. for 2 min was repeated 30 times, followed by a final elongation step at 72° C. for 10 min. The desired PCR product (1.1 Kb) was confirmed by agarose gel electrophoresis and the band was extracted from the gel by Geneclean (Bio101) following the manufacturer's instructions. Following extraction, the cDNA fragment was cloned into pCR2.1-TOPO plasmid (Invitrogen Corp) to confirm the identity and sequence.
In order to generate cell lines stably expressing MCHR1, the insert was then subcloned into the Xba I and Not I sites of pcDNA(+)-3.1-neomycin (Invitrogen). After purification by Qiagen Maxi-prep kit (QIAGEN, Inc.), the plasmid was transfected by Fugene 6 (Roche Applied Science) into AV12 cells that had been previously transfected with the promiscuous G protein Gα15. The transfected cells were selected by G418 (800 μg/ml) for 10-14 days and single colonies were isolated from culture plates. The G418-resistant colonies were further selected for MCHR1 expression by measuring MCH-stimulated Ca^2+ transients with a fluorometric imaging plate reader (FLIPR, Molecular Devices).
Both the ^125I-MCH binding and functional GTPγ^35S binding assays employed membranes isolated from a clone designated as clone 43. Typically, cells from 20 confluent T225 flasks were processed by washing the monolayers in cold phosphate-buffered saline (PBS), scraping the cells into same and re-suspending the cell pellet in 35 ml of 250 mM Sucrose, 50 mM HEPES, pH 7.5, 1 mM MgCl2, 24 μg/ml DNase I, and protease inhibitors (1 Complete® tablet, per 50 ml of buffer prepared, Roche Diagnostics). […]
Binding of compounds to MCHR1 was assessed in a competitive binding assay employing ^125I-MCH, compound and clone 43 membranes. […] Non-specific binding is assessed in the presence of 0.1 μM unlabeled MCH. Bound ^125I-MCH is determined by placing sealed plates in a Microbeta Trilux (Perkin Elmer Life and Analytical Sciences Inc) and counting after a 12 hr delay. […]

Where two headings read alike, the source gives them in different places.

T1 sequence (Q99705 whole entry): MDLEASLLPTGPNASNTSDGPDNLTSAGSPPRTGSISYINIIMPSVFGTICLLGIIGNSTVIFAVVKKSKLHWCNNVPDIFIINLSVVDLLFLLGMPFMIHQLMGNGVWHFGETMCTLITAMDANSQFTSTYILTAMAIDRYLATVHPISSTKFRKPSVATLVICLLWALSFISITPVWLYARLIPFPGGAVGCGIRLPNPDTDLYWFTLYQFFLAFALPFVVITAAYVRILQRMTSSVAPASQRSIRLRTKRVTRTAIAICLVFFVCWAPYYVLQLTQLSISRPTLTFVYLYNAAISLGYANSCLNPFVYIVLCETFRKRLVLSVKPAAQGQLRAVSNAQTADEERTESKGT

Regarding `CN1CCC(CN(C)c2nc3cc(NC(=O)c4ccc(-c5ccc(F)cc5)cc4)ccc3o2)C1` (single isomer, unassigned) [Example 34, 4′-Fluoro-biphenyl-4-carboxylic acid {2-[methyl-(1-methyl-pyrrolidin-3-ylmethyl)-amino]-benzooxazol-5-yl}-amide], the “Body weight reduction @ 10 mg/Kg versus vehicle control. Data expressed in grams.” value in assay [1] is reported as 5.8 grams. In addition, the Ki at human MCHR1 (read-out: Average MCHR1 Ki) worked out at 8.79 nM.

With `CN1CCC(N(C)c2nc3ccc(NC(=O)c4ccc(-c5ccc(F)cc5)cc4)cc3s2)C1` (single isomer, unassigned) [Example 106, 4′-Fluoro-biphenyl-4-carboxylic Acid {2-[methyl-(1-methyl-pyrrolidin-3-yl)-amino]-benzothiazol-6-yl}-amide], in assay [1], the “Body weight reduction @ 10 mg/Kg versus vehicle control. Data expressed in grams.” value worked out at 8.4 grams. In addition, the Ki on human MCHR1 (read-out: Average MCHR1 Ki) was determined as 16.7 nM.

For `CN1CCC(N(C)c2nc3ccc(NC(=O)c4ccc(-c5ccc(F)cc5)cc4)cc3s2)C1` (single isomer, unassigned) [Example 107, 4′-Fluoro-biphenyl-4-carboxylic Acid {2-[methyl-(1-methyl-pyrrolidin-3-yl)-amino]-benzothiazol-6-yl}-amide], the “Body weight reduction @ 10 mg/Kg versus vehicle control. Data expressed in grams.” value in assay [1] amounted to 7.1 grams. Moreover, the Ki at human MCHR1 (read-out: Average MCHR1 Ki) came out at 15.3 nM.

`CN1CCC(N(C)c2nc3cc(NC(=O)c4ccc(-c5ccc(F)cc5Cl)cc4)ccc3o2)CC1.Cl` [Example 157, 2′-Chloro-4′-fluoro-biphenyl-4-carboxylic acid {2-[methyl-(1-methyl-piperidinyl)-amino]-benzooxazol-5-yl}-amide Hydrochloride]: in assay [1], the “Body weight reduction @ 10 mg/Kg versus vehicle control. Data expressed in grams.” value stood at 18 grams. On human MCHR1 (Average MCHR1 Ki (nM)), this molecule yielded a Ki of 7.5 nM.
